Experimental data as given in PubChem BioAssay AID248 (DTP/NCI, 2004).
Values joined by “and” are separate entries in the source; they are usually repeats but may differ in a detail not shown here. Equal entries are not always repeated. Toxic doses and inconclusive results are not listed.

Tested on: L1210 leukemia ip in BDF1 mice, survival T/C
Test: NCI In Vivo Anticancer Drug Screen. Data for tumor model L1210 Leukemia (intraperitoneal) in B6D2F1 (BDF1) mice
Conditions: endpoint: mean survival time, higher = longer survival
In short: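 Mice bearing the transplanted tumor received compound or vehicle. Survival of the treated group was divided by that of the vehicle-treated control group to give the ratio.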

O=c1[nH]cc(S(=O)(=O)Nc2ccccc2)c(=O)[nH]1
T/C (dose: 25.0 mg/kg/injection, schedule: Q01DX001 (ip), vehicle: saline with Tween-80): 106 % of control | T/C (dose: 50.0 mg/kg/injection, schedule: Q01DX001 (ip), vehicle: saline with Tween-80): 103 % of control | T/C (dose: 100.0 mg/kg/injection, schedule: Q01DX001 (ip), vehicle: saline with Tween-80): 103 % of control

CC(C)OCCS(=O)(=O)Oc1ncc(Cl)cc1Cl
T/C (dose: 12.5 mg/kg/injection, schedule: Q01DX009 (ip), vehicle: saline with Tween-80): 113 % of control | T/C (dose: 25.0 mg/kg/injection, schedule: Q01DX009 (ip), vehicle: saline with Tween-80): 94 % of control | T/C (dose: 50.0 mg/kg/injection, schedule: Q01DX009 (ip), vehicle: saline with Tween-80): 96 % of control | T/C (dose: 100.0 mg/kg/injection, schedule: Q04DX003 (ip), vehicle: saline with Tween-80): 94 % of control | T/C (dose: 200.0 mg/kg/injection, schedule: Q04DX003 (ip), vehicle: saline with Tween-80): 96 % of control | T/C (dose: 400.0 mg/kg/injection, schedule: Q01DX009 (ip), vehicle: saline with Tween-80): 90 % of control | T/C (dose: 400.0 mg/kg/injection, schedule: Q04DX003 (ip), vehicle: saline with Tween-80): 94 % of control

Nc1nc(=S)c2ncn(CN3CCCCC3)c2[nH]1
T/C (dose: 1.3 mg/kg/injection, schedule: Q01DX Z (ip), vehicle: carboxymethylcellulose (CMC)): 112 % of control | T/C (dose: 2.0 mg/kg/injection, schedule: Q01DX Z (ip), vehicle: carboxymethylcellulose (CMC)): 123 % of control | T/C (dose: 3.0 mg/kg/injection, schedule: Q01DX Z (ip), vehicle: carboxymethylcellulose (CMC)): 154 % of control | T/C (dose: 3.0 mg/kg/injection, schedule: Q01DX Z (ip), vehicle: saline): 155 % of control | T/C (dose: 4.5 mg/kg/injection, schedule: Q01DX Z (ip), vehicle: carboxymethylcellulose (CMC)): 151 % of control | T/C (dose: 4.5 mg/kg/injection, schedule: Q01DX Z (ip), vehicle: saline): 166 % of control | T/C (dose: 7.0 mg/kg/injection, schedule: Q01DX Z (ip), vehicle: saline): 156 % of control | T/C (dose: 10.0 mg/kg/injection, schedule: Q01DX Z (ip), vehicle: saline): 156 % of control

Nc1ncnc2c1ncn2C1OC(CO)C(O)C1O (stereo not drawn)
T/C (dose: 6.25 mg/kg/injection, schedule: Q01DX009 (ip), vehicle: Klucel (hydroxypropylcellulose) (HPC)): 115 % of control | T/C (dose: 7.8 mg/kg/injection, schedule: Q#A X012 (ip), vehicle: methylcellulose (MC)): 102 % of control and 109 % of control | T/C (dose: 12.5 mg/kg/injection, schedule: Q01DX009 (ip), vehicle: Klucel (hydroxypropylcellulose) (HPC)): 112 % of control | T/C (dose: 12.5 mg/kg/injection, schedule: Q04DX002 (ip), vehicle: Klucel (hydroxypropylcellulose) (HPC)): 100 % of control | T/C (dose: 13.0 mg/kg/injection, schedule: Q#A X012 (ip), vehicle: methylcellulose (MC)): 103 % of control and 109 % of control | T/C (dose: 22.0 mg/kg/injection, schedule: Q#A X012 (ip), vehicle: methylcellulose (MC)): 102 % of control and 110 % of control | T/C (dose: 25.0 mg/kg/injection, schedule: Q01DX001 (ip), vehicle: saline): 103 % of control | T/C (dose: 25.0 mg/kg/injection, schedule: Q01DX009 (ip), vehicle: Klucel (hydroxypropylcellulose) (HPC)): 100 % of control and 108 % of control | T/C (dose: 25.0 mg/kg/injection, schedule: Q04DX002 (ip), vehicle: Klucel (hydroxypropylcellulose) (HPC)): 107 % of control | T/C (dose: 25.0 mg/kg/injection, schedule: Q04DX003 (ip), vehicle: saline): 105 % of control | T/C (dose: 36.0 mg/kg/injection, schedule: Q#A X012 (ip), vehicle: methylcellulose (MC)): 106 % of control and 108 % of control | T/C (dose: 50.0 mg/kg/injection, schedule: Q01DX001 (ip), vehicle: saline): 100 % of control | T/C (dose: 50.0 mg/kg/injection, schedule: Q01DX009 (ip), vehicle: Klucel (hydroxypropylcellulose) (HPC)): 101 % of control and 107 % of control | T/C (dose: 50.0 mg/kg/injection, schedule: Q04DX002 (ip), vehicle: Klucel (hydroxypropylcellulose) (HPC)): 97 % of control | T/C (dose: 50.0 mg/kg/injection, schedule: Q04DX003 (ip), vehicle: saline): 116 % of control | T/C (dose: 60.0 mg/kg/injection, schedule: Q#A X012 (ip), vehicle: methylcellulose (MC)): 106 % of control | T/C (dose: 100.0 mg/kg/injection, schedule: Q01DX001 (ip), vehicle: carboxymethylcellulose (CMC)): 100 % of control | T/C (dose: 100.0 mg/kg/injection, schedule: Q01DX001 (ip), vehicle: saline): 100 % of control and 110 % of control | T/C (dose: 100.0 mg/kg/injection, schedule: Q01DX005 (ip), vehicle: saline): 106 % of control and 95 % of control and 92 % of control | T/C (dose: 100.0 mg/kg/injection, schedule: Q01DX009 (ip), vehicle: Klucel (hydroxypropylcellulose) (HPC)): 103 % of control | T/C (dose: 100.0 mg/kg/injection, schedule: Q01DX009 (ip), vehicle: saline): 94 % of control | T/C (dose: 100.0 mg/kg/injection, schedule: Q04DX003 (ip), vehicle: saline): 104 % of control and 112 % of control | T/C (dose: 118.0 mg/kg/injection, schedule: Q01DX005 (ip), vehicle: water): 112 % of control | T/C (dose: 118.0 mg/kg/injection, schedule: Q01DX009 (ip), vehicle: water): 112 % of control | T/C (dose: 150.0 mg/kg/injection, schedule: Q01DX009 (ip), vehicle: saline): 105 % of control | T/C (dose: 177.0 mg/kg/injection, schedule: Q01DX005 (ip), vehicle: water): 114 % of control | T/C (dose: 177.0 mg/kg/injection, schedule: Q01DX009 (ip), vehicle: saline with Tween-80): 120 % of control | T/C (dose: 177.0 mg/kg/injection, schedule: Q01DX009 (ip), vehicle: water): 111 % of control | T/C (dose: 200.0 mg/kg/injection, schedule: Q01DX001 (ip), vehicle: carboxymethylcellulose (CMC)): 100 % of control and 107 % of control | T/C (dose: 200.0 mg/kg/injection, schedule: Q01DX005 (ip), vehicle: saline): 95 % of control and 101 % of control and 87 % of control | T/C (dose: 200.0 mg/kg/injection, schedule: Q01DX009 (ip), vehicle: Klucel (hydroxypropylcellulose) (HPC)): 97 % of control | T/C (dose: 200.0 mg/kg/injection, schedule: Q01DX009 (ip), vehicle: carboxymethylcellulose (CMC)): 114 % of control | T/C (dose: 200.0 mg/kg/injection, schedule: Q01DX009 (ip), vehicle: saline): 102 % of control | T/C (dose: 200.0 mg/kg/injection, schedule: Q04DX003 (ip), vehicle: saline): 94 % of control | T/C (dose: 266.0 mg/kg/injection, schedule: Q01DX005 (ip), vehicle: water): 115 % of control | T/C (dose: 266.0 mg/kg/injection, schedule: Q01DX009 (ip), vehicle: saline with Tween-80): 124 % of control | T/C (dose: 266.0 mg/kg/injection, schedule: Q01DX009 (ip), vehicle: water): 112 % of control | T/C (dose: 300.0 mg/kg/injection, schedule: Q01DX009 (ip), vehicle: saline): 102 % of control | T/C (dose: 400.0 mg/kg/injection, schedule: Q01DX001 (ip), vehicle: carboxymethylcellulose (CMC)): 106 % of control and 109 % of control | T/C (dose: 400.0 mg/kg/injection, schedule: Q01DX005 (ip), vehicle: water): 112 % of control | T/C (dose: 400.0 mg/kg/injection, schedule: Q01DX009 (ip), vehicle: Klucel (hydroxypropylcellulose) (HPC)): 116 % of control | T/C (dose: 400.0 mg/kg/injection, schedule: Q01DX009 (ip), vehicle: saline): 107 % of control | T/C (dose: 400.0 mg/kg/injection, schedule: Q01DX009 (ip), vehicle: water): 117 % of control | T/C (dose: 400.0 mg/kg/injection, schedule: Q04DX003 (ip), vehicle: saline): 88 % of control | T/C (dose: 500.0 mg/kg/injection, schedule: Q03HX024 (ip), vehicle: saline with Tween-80): 124 % of control | T/C (dose: 600.0 mg/kg/injection, schedule: Q01DX005 (ip), vehicle: water): 110 % of control | T/C (dose: 600.0 mg/kg/injection, schedule: Q01DX009 (ip), vehicle: saline): 109 % of control | T/C (dose: 600.0 mg/kg/injection, schedule: Q01DX009 (ip), vehicle: water): 119 % of control | T/C (dose: 600.0 mg/kg/injection, schedule: Q03HX024 (ip), vehicle: saline with Tween-80): 113 % of control | T/C (dose: 800.0 mg/kg/injection, schedule: Q01DX001 (ip), vehicle: carboxymethylcellulose (CMC)): 107 % of control | T/C (dose: 800.0 mg/kg/injection, schedule: Q01DX009 (ip), vehicle: Klucel (hydroxypropylcellulose) (HPC)): 103 % of control | T/C (dose: 800.0 mg/kg/injection, schedule: Q01DX009 (ip), vehicle: carboxymethylcellulose (CMC)): 122 % of control | T/C (dose: 900.0 mg/kg/injection, schedule: Q01DX005 (ip), vehicle: water): 115 % of control | T/C (dose: 900.0 mg/kg/injection, schedule: Q01DX009 (ip), vehicle: water): 122 % of control | T/C (dose: 1000.0 mg/kg/injection, schedule: Q01DX009 (ip), vehicle: carboxymethylcellulose (CMC)): 112 % of control | T/C (dose: 1200.0 mg/kg/injection, schedule: Q01DX009 (ip), vehicle: carboxymethylcellulose (CMC)): 118 % of control | T/C (dose: 1600.0 mg/kg/injection, schedule: Q01DX001 (ip), vehicle: carboxymethylcellulose (CMC)): 112 % of control

CCC/C(=N\NC(N)=O)C(OC)OC
T/C (dose: 100.0 mg/kg/injection, schedule: Q01DX001 (ip), vehicle: other): 94 % of control | T/C (dose: 200.0 mg/kg/injection, schedule: Q01DX001 (ip), vehicle: other): 105 % of control | T/C (dose: 400.0 mg/kg/injection, schedule: Q01DX001 (ip), vehicle: other): 92 % of control
